The values that follow come from patent US8349553B2, “Jasmonate based assays for identifying compounds that selectively inhibit mitochondrial bound hexokinases” (Ramot at Tel Aviv University Ltd., priority 2007, dated 2013).

For assay [1], the system named is HKI and HKII (mitochondrial fraction of BCL-1). In words: Western blot of supernatants with anti-HKI and anti-HKII, BCL-1 mitochondrial fraction. Conditions: BCL-1 mitochondrial fraction supernatant. The format is biochemical, murine. The procedure: For analysis of hexokinase levels, the experiments were performed similarly to hexokinase detachment assay described above, and unbound hexokinase in the supernatant fraction was extracted as described in Fingrut (2005). Samples were separated by sodium dodecylsulfate-polyacrylamide gel (7%) electrophoresis followed by immunoblotting. The blots were probed with specific anti-HKI or anti-HKII antibodies (1:300, Santa-Cruz Biotechnology, CA, USA). Hexokinase-antibody complexes were stained with HRP-conjugated antibody (1:10,000, Santa-Cruz Biotechnology, CA, USA). Enhanced chemiluminescence (ECL) reagent (Biological Industries, Beit Haemek, Israel) was added, and the blots were exposed to ECL film (Eastman Kodak, Rochester, N.Y., USA). Hexokinase detachment from mitochondrial fraction is not limited to CT-26 colon carcinoma. Mitochondrial fractions isolated from different cancer cells, namely Molt-4 cells, BCL-1 leukemic cells and B16 melanoma tumors were incubated for 30 minutes at 37° C., and the activity of unbound hexokinase was measured and compared to the activity of spontaneously (control) detached hexokinase. […] The supernatant of the experiments were separated on SDS-PAGE and probed with anti-HKI and anti-HKII antibodies.
(Immunoblotting shows a protein as a band on a membrane.)

Assay [2] has as its system BCL-1 leukemic cells. In words: Cellular ATP levels (CellTiter-Glo), BCL-1. The settings on record: 60 minutes of exposure, various concentrations. The format is cell-based, murine. The protocol: The CellTiter-Glo™ Luminescent Cell Viability Assay (Promega, Madison, Wis., U.S.A.) was employed (Fingrut, 2005). Upon completion of a given experiment, plates were equilibrated to room temperature. CellTiter-Glo™ reagent containing luciferin and luciferase was added to each well and the plates were mixed on an orbital shaker for 2 minutes to induce cell lysis. In the presence of ATP, Mg^2+ and molecular oxygen, mono-oxidation of luciferin is catalyzed by luciferase, generating a luminescence signal. Cells were then incubated for 10 minutes at room temperature to stabilize the luminescence signal. Luminescence was recorded using Kodak digital science—Image station 440 CD. Luminescence is directly proportional to ATP concentration. ATP depletion (% of control) was calculated in the following way: {(luminescence of control cells−luminescence of drug-treated cells)/luminescence of control cells}×100. In order to test the correlation between cellular ATP levels and the release of hexokinase from mitochondrial fraction different cancer cells, namely Molt-4 cells, BCL-1 leukemic cells and B16 melanoma tumors were exposed to various methyl jasmonate concentrations. […] CT26 and Molt-4 cells were then seeded in 24 well plates. CT26 cells were allowed to adhere over night. Cells were exposed to methyl jasmonate (MJ; 3 mM) for 1 hour. Trypan blue exclusion test was performed and cells were counted.
For orientation: Cellular ATP, detected with luciferase, serves as a proxy for viable cell number.

For assay [3], the target named is T1, voltage-dependent anion channel (Rattus norvegicus, UniProt Q9Z2L0).
T1 construct: purified mitochondrial voltage-dependent anion channel reconstituted into a planar lipid bilayer; from tissue; host or cells: rat liver mitochondria
T1 sequence (Q9Z2L0 whole entry): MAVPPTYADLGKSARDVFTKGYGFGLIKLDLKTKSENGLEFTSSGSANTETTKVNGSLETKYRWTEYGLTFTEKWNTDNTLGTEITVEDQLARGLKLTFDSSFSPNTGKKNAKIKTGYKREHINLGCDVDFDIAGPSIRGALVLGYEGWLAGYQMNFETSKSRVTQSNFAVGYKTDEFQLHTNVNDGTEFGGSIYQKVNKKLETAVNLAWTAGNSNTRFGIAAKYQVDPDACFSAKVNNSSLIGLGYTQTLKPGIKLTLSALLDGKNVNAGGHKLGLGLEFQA
In words: Voltage-dependent anion channel recording in planar lipid bilayer (channel alone). The format is biochemical. Conditions: 3 mM; voltage stepped from 0 mV to −40 mV. The protocol: Currents were measured with respect to the trans side of the membrane (ground).

The target in assay [4] is T2, purified rat brain HKI (Rattus norvegicus, UniProt P05708).
T2 construct: from tissue; host or cells: rat brain mitochondria
T2 sequence (P05708 whole entry): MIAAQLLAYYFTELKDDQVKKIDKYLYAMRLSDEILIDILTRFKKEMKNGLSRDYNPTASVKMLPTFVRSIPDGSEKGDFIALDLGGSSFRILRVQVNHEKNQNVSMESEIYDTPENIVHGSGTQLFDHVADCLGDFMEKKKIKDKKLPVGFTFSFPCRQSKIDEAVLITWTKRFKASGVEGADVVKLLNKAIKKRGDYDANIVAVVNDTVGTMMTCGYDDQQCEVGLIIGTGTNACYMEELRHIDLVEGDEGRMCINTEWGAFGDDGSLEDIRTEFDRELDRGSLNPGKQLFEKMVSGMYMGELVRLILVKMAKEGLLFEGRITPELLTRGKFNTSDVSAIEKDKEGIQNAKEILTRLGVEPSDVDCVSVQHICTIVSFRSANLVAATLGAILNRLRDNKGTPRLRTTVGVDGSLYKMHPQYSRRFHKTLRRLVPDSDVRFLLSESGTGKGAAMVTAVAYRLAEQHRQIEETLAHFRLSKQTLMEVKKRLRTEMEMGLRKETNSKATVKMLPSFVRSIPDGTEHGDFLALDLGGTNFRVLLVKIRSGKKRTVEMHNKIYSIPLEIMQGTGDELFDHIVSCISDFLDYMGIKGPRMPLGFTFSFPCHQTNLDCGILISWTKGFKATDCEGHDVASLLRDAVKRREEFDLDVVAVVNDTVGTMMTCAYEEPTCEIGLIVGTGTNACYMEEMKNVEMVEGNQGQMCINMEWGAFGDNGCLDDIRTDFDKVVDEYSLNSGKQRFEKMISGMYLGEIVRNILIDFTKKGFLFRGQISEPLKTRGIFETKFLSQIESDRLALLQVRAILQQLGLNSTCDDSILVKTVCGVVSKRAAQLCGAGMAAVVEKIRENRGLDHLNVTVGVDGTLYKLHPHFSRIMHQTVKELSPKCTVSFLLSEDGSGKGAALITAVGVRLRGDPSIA
In words: Surface plasmon resonance analysis of jasmonate-HK interactions. It is filed as binding. The settings on record: analyte injected at varying concentrations (MJ 0.375-6 mM); 25° C. The procedure: Rat brain HK-I was purified as following, crude brain mitochondria containing tightly bound HK-I were incubated with 1.2 mM glucose-6-phosphate and 0.5 mM K-EDTA to release the enzyme into the soluble fraction. Further purification of HK-I was achieved by affinity chromatography on Cibacron Blue-agarose (Pharmacia). The purified enzyme was concentrated and washed in 0.5 mM K-EDTA, 10 mM glucose, 1 mM dithiothreitol and 10 mM K-Hepes, pH 7.8, using an Amicon device and a 50,000 Da molecular mass cut-off membrane (Spectrum; type C). The concentrated enzyme (up to 1 mg/ml; 30-60 units/mg) was frozen in liquid nitrogen and stored at −80° C. until use (Azoulay-Zohar, 2004).
Surface plasmon resonance (SPR) is an optical biosensor technique that measures molecular binding events at a metal surface by detecting changes in the local refractive index. SPR is the surface-sensitive technique ideal for studying interactions between immobilized biomolecules (ligands) and a solution-phase analyte. The biosensor response is directly proportional to the mass of the bound analyte. The advantage of SPR for investigation of small molecular weight analytes over conventional techniques such as fluorescence or enzyme-linked immunosorbent assay is detection of an analyte being label-free and direct, without the need for labeling of analyte or multistep detection protocols (sandwich assay). […]
In general terms: SPR reads the build-up and loss of mass on a sensor chip optically.

Assay [5] relates to mitochondrial fraction of mouse liver. In words: Mitochondrial swelling assay, mouse liver. The format is biochemical. Conditions: 1 mM. The protocol: Freshly isolated mitochondrial fraction was washed with extraction buffer to remove EDTA and resuspended in swelling buffer (Mannitol 220 mM, Sucrose 70 mM, Tris, pH 7.2, 150 mM, KH2PO4, pH 7.2, 0.2 mM; 0.2 mg in 100 μL) freshly supplemented with potassium succinate, pH 7.2, 5 mM. Every component was sodium-free. Optical density was monitored at the wave length of 540 nm for 2-5 minutes before the addition of the examined reagents, e.g. methyl jasmonate, and for additional 20 minutes afterwards.
In order to examine the consistency of the relationship between the ability of methyl jasmonate to detach bound hexokinase and mitochondrial damage, methyl jasmonate was tested in mouse brain in comparison to mouse liver. The comparison was performed due to known differences of mitochondrial hexokinase content between mouse brain vs. its liver. It is well established in the art that brain mitochondrial fraction is rich in bound hexokinase, while liver mitochondrial fraction is essentially devoid of it (Wilson, 1995). […] Mitochondrial fractions were incubated for either 10, 30 or 60 minutes at 37° C. The activity of unbound hexokinase was measured and compared to the activity of spontaneously (control) detached hexokinase. Consequently, the ability of methyl jasmonate to induce swelling in mitochondrial fraction isolated from mouse brain and liver was tested.

With `CC/C=C\CC1C(=O)CCC1CC(=O)OC` (centres unmarked) [methyl jasmonate], in assay [1], the “detachment of hexokinase confirmed by immunoblot (anti-HKI, anti-HKII)” value is on record as “detachment of hexokinase from mitochondrial fraction of the various cancer cells was further confirmed”. Besides, the “cellular ATP level” value in assay [2] is “significant and dose-dependent decrease of cellular ATP”. For the same molecule, the “current passing through voltage-dependent anion channel (no hexokinase)” value in assay [3] is given as “showed no effect on the current passing through voltage-dependent anion channel”. In addition, the “binding to immobilized hexokinase (SPR)” value in assay [4] is recorded as “bind to purified rat brain HKI in a dose-dependent manner”. Besides, the “mitochondrial swelling (optical density at 540 nm)” value in assay [5] is given as “not in liver”.
